{"source": "patent US6184018A", "about": "“β-glucosidase coding sequences and protein from orpinomyces PC-2” (University of Georgia Research Foundation, Inc., priority 1999, dated 2001)", "key": {"[1]": {"tested_on": "β-glucosidase from T. reesei", "conditions": "Chen et al. (1992), cited from earlier work"}, "[2]": {"tested_on": "native β-glucosidase of Orpinomyces PC-2", "conditions": "Chen et al. (1994), cited from earlier work"}, "[3]": {"tested_on": "β-glucosidase from Aureobasidium pullulans", "conditions": "Saha et al. (1995), cited from earlier work"}, "[4]": {"tested_on": "β-glucosidase from Thermotoga sp", "conditions": "Ruthersmith and Daniel (1993), cited from earlier work"}, "[5]": {"tested_on": "β-glucosidase from Sporotrichum thermophile", "conditions": "Bhat et al. (1993), cited from earlier work"}, "[6]": {"target": "β-glucosidase from Aspergillus niger (Aspergillus niger, UniProt A2RAL4)", "sequence (A2RAL4 20-860)": "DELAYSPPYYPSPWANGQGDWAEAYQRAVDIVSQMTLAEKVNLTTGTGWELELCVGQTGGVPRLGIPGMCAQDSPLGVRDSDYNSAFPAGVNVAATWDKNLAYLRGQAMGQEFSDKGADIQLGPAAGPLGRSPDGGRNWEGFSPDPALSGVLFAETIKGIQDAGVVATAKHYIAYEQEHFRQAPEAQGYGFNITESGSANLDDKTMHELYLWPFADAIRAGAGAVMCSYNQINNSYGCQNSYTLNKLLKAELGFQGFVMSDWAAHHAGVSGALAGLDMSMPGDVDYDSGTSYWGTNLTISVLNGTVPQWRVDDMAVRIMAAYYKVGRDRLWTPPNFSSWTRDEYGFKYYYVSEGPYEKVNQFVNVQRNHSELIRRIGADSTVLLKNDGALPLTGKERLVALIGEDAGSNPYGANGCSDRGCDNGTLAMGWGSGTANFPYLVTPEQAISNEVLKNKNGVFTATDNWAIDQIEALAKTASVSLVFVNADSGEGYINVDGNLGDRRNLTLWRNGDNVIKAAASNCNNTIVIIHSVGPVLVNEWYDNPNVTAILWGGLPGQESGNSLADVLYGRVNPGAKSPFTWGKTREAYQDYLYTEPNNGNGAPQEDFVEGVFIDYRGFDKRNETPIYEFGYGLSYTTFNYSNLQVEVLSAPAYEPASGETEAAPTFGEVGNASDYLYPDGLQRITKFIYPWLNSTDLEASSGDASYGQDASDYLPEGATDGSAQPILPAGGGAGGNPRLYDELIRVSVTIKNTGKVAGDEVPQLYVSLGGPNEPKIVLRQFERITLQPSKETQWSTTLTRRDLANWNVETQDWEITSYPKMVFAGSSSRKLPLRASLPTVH", "conditions": "read-out: Cellobiose affinity (Km); Hoh et al. (1992); cited from earlier work"}, "[7]": {"tested_on": "β-glucosidase from Clostridium thermocellum", "conditions": "Katayeva et al. (1992); read-out: Cellobiose affinity (Km); cited from earlier work"}, "[8]": {"tested_on": "β-glucosidase from Aspergillus nidulans", "conditions": "Kwon et al. (1992), cited from earlier work"}, "[9]": {"target": "T1, Orpinomyces sp. strain PC-2 β-glucosidase BglA, recombinant, secreted from S. cerevisiae, SEQ ID NO:2 (Orpinomyces sp. PC-2, UniProt Q9UUQ3)", "T1 sequence (Q9UUQ3 17-657)": "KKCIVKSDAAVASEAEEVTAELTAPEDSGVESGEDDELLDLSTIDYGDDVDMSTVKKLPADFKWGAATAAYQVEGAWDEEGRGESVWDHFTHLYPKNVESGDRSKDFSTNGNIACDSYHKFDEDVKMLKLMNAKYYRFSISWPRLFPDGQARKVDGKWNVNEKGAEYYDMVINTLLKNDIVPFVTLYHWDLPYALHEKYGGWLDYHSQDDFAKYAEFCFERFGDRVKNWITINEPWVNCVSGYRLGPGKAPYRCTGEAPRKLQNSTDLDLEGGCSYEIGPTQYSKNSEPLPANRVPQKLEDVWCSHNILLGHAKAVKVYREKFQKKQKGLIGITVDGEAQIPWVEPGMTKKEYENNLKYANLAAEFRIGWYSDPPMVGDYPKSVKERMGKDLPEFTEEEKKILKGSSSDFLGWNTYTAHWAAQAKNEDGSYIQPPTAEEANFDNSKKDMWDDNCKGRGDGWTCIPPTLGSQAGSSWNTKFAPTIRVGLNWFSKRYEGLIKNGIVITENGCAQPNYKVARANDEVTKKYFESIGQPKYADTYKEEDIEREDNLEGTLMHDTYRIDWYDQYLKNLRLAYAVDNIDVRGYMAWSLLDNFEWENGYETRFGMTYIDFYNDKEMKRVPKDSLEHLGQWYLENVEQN", "assay": "Kinetic parameters of purified secreted recombinant BglA (Lineweaver-Burk plots)", "type": "biochemical", "procedure": "(§1) β-Glucosidase (.rho.-nitrophenyl-β-D-glucosidase [.rho.NPGase]) and cellobiase activities were determined by the following standard procedures. With .rho.-nitrophenyl-β-D-glucoside (.rho.NPG) as the substrate, the reaction mixture of 1.2 ml contained 0.3 ml of appropriately diluted enzyme solution, 0.6 ml of 50 mM sodium phosphate buffer, pH 6.0, and 0.3 ml of 12 mM .rho.NPG. The reaction was carried out for 10 min at 40° C. and stopped by the addition of 2.4 ml of 1M Na2 CO3. The liberated .rho.-nitrophenol was measured spectrophotometrically at 405 nm [Herr et al. (1978) Appl. Microbiol. Biotechnol. 5:29-36; Chen et al. (1992) Biochem. Biophys. Acta. 1121:54-60]. Cellobiase activity was determined by using a reaction mixture of 2 ml containing 1 ml of appropriately diluted enzyme solution in 50 mM sodium phosphate buffer, pH 6.0, and 1 ml of 2 mM cellobiose. The reaction was carried out at 40° C. for 30 min and was stopped by placing the assay tubes in boiling water for 5 min. Liberated glucose was measured with a glucose determination kit (Sigma Chemical Co., St. Louis, Mo.) according to the manufacturer's instructions. One unit of β-glucosidase or cellobiase activity is defined as the amount of enzyme required to hydrolyze 1 μmole of substrate per min. Specific activity is expressed as unit per milligram of protein. […]"}, "[10]": {"substrate": "O=[N+]([O-])c1ccc(O[C@@H]2O[C@H](CO)[C@@H](O)[C@H](O)[C@H]2O)cc1", "assay": "Kinetic parameters of purified secreted recombinant BglA (Lineweaver-Burk plots)", "type": "biochemical, Orpinomyces sp. strain PC-2", "conditions": "other: 40° C. and pH 6.0", "procedure": "as §1"}, "[11]": {"substrate": "OC[C@H]1O[C@@H](O[C@H]2[C@H](O)[C@@H](O)C(O)O[C@@H]2CO)[C@H](O)[C@@H](O)[C@@H]1O", "assay": "Kinetic parameters of purified secreted recombinant BglA (Lineweaver-Burk plots)", "type": "biochemical, Orpinomyces sp. strain PC-2", "conditions": "other: 40° C. and pH 6.0", "procedure": "as §1"}, "[12]": {"conditions": "read-out: Cellobiose affinity (Km)"}, "[13]": {"conditions": "read-out: Glucose inhibition (Ki)"}}, "note": "Where two headings read alike, the source gives them in different places."}
{"molecule": "OC[C@H]1O[C@@H](O[C@H]2[C@H](O)[C@@H](O)C(O)O[C@@H]2CO)[C@H](O)[C@@H](O)[C@@H]1O", "note": "(stereo partly drawn) [Cellobiose, cellobiose (β-1,4-glucobiose)]", "values": [{"measurement": "Km", "setting": "[1]; [12]", "result": 2100, "unit": "µM"}, {"measurement": "Km", "setting": "[2]; [12]", "result": 250, "unit": "µM"}, {"measurement": "Km", "setting": "[3]; [12]", "result": 5650, "unit": "µM"}, {"measurement": "Km", "setting": "[4]; [12]", "result": 19000, "unit": "µM"}, {"measurement": "Km", "setting": "[5]; [12]", "result": 830, "unit": "µM"}, {"measurement": "Km", "setting": "[6]", "result": 890, "unit": "µM"}, {"measurement": "Km", "setting": "[7]", "result": 77000, "unit": "µM"}, {"measurement": "Km", "setting": "[8]; [12]", "result": 1000, "unit": "µM"}]}
{"molecule": "OC[C@H]1OC(O)[C@H](O)[C@@H](O)[C@@H]1O", "note": "(stereo partly shown) [Glucose]", "values": [{"measurement": "Ki", "setting": "[1]; [13]", "result": 620, "unit": "µM"}, {"measurement": "Ki", "setting": "[2]; [13]", "result": 8750, "unit": "µM"}, {"measurement": "Ki", "setting": "[3]; [13]", "result": 1000, "unit": "µM"}, {"measurement": "Ki", "setting": "[4]; [13]", "result": 420, "unit": "µM"}, {"measurement": "Ki", "setting": "[5]; [13]", "result": 500, "unit": "µM"}, {"measurement": "Ki", "setting": "[9]", "result": 3600, "unit": "µM"}, {"measurement": "Ki", "setting": "[8]; [13]", "result": 5480, "unit": "µM"}]}
{"molecule": "O=C1O[C@H](CO)[C@@H](O)[C@H](O)[C@H]1O", "note": "[glucono-1,5-lactone, reference compound]", "values": [{"measurement": "Ki", "setting": "[9]; competitive inhibition, pNPG and cellobiose as substrates, read-out: Ki of glucono-1,5-lactone", "result": 50, "unit": "µM"}]}
{"molecule": "O=[N+]([O-])c1ccc(O[C@@H]2O[C@H](CO)[C@@H](O)[C@H](O)[C@H]2O)cc1", "note": "[pNPG, .rho.-nitrophenyl-β-D-glucoside, reference compound]", "values": [{"measurement": "Km", "setting": "[2]; read-out: Km (pNPG as substrate)", "result": 350, "unit": "µM"}]}
{"molecule": "Orpinomyces sp. strain PC-2 β-glucosidase BglA, recombinant, secreted from S. cerevisiae, SEQ ID NO:2 (Orpinomyces sp. PC-2) (protein) KKCIVKSDAAVASEAEEVTAELTAPEDSGVESGEDDELLDLSTIDYGDDVDMSTVKKLPADFKWGAATAAYQVEGAWDEEGRGESVWDHFTHLYPKNVESGDRSKDFSTNGNIACDSYHKFDEDVKMLKLMNAKYYRFSISWPRLFPDGQARKVDGKWNVNEKGAEYYDMVINTLLKNDIVPFVTLYHWDLPYALHEKYGGWLDYHSQDDFAKYAEFCFERFGDRVKNWITINEPWVNCVSGYRLGPGKAPYRCTGEAPRKLQNSTDLDLEGGCSYEIGPTQYSKNSEPLPANRVPQKLEDVWCSHNILLGHAKAVKVYREKFQKKQKGLIGITVDGEAQIPWVEPGMTKKEYENNLKYANLAAEFRIGWYSDPPMVGDYPKSVKERMGKDLPEFTEEEKKILKGSSSDFLGWNTYTAHWAAQAKNEDGSYIQPPTAEEANFDNSKKDMWDDNCKGRGDGWTCIPPTLGSQAGSSWNTKFAPTIRVGLNWFSKRYEGLIKNGIVITENGCAQPNYKVARANDEVTKKYFESIGQPKYADTYKEEDIEREDNLEGTLMHDTYRIDWYDQYLKNLRLAYAVDNIDVRGYMAWSLLDNFEWENGYETRFGMTYIDFYNDKEMKRVPKDSLEHLGQWYLENVEQN", "values": [{"measurement": "Km", "setting": "[10]", "result": 762, "unit": "µM"}, {"measurement": "Km", "setting": "[11]", "result": 310, "unit": "µM"}]}
